Literature values, collected in publication PMC7804859, “A metabolically stable apelin-17 analog decreases AVP-induced antidiuresis and improves hyponatremia” (Nature Communications, 2021).
Read-outs that look alike come from different tables or passages of the source.

Tested on: anti-K17F serum
Settings: cited from earlier work; for cross-reactivity with the apelin antiserum: ref De Mota et al, PNAS, 2004
Method: The columns were then treated as described in 207 the paragraph above.

Row | Substance | recognition by antibody directed against K17F | cross-reactivity with the apelin antiserum (pE13F taken as 100%) [%] | cross-reactivity with the apelin antiserum
1 | K16P: K17F after removal of the phenylalanine residue at the extreme end of the C-terminus (KFRRQRPRLSHKGPMP; UniProt Q9ULZ1 61-76, looked up, fragment) | does not recognize | < 0.3 | –
2 | angiotensin II (DRVYIHPF; Angiotensin-2; UniProt P01019 25-32, looked up) | – | – | Negligible cross-reactivity
3 | angiotensin III (RVYIHPF; Angiotensin-3; UniProt P01019 26-32, looked up) | – | – | Negligible cross-reactivity
4 | apelin 36: molecular form of apelin identified in vivo (LVQPRGSRNGPGPWQGGRRKFRRQRPRLSHKGPMPF; Apelin-36; UniProt Q9ULZ1 42-77, looked up) | – | 100 | –
5 | neuropeptide Y | – | – | Negligible cross-reactivity
